Results from article PMC10149367, “The ferroptosis inducing compounds RSL3 and ML162 are not direct inhibitors of GPX4 but of TXNRD1” (Redox Biology, 2023).

What was measured:
[1] = biological target: T1, glutathione reductase (GR) (Homo sapiens, UniProt P00390); experiment: GR counter assay; assay type: biochemical; conditions: Extended Data Fig. 2A right panel
T1 construct: made in house
T1 sequence (P00390 44-522): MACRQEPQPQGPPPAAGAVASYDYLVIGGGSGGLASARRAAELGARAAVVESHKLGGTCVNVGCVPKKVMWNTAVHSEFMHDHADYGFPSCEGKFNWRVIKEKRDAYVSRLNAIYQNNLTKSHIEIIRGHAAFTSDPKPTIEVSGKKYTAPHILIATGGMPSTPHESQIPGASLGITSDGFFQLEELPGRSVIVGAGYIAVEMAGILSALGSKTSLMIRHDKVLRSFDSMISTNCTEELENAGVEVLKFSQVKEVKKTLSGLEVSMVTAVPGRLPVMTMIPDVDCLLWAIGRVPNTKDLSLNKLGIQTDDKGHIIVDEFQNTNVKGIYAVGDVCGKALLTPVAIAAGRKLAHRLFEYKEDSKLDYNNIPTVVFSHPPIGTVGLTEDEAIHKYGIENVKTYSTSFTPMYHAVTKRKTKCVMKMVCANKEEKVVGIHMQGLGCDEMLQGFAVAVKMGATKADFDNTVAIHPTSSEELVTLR
Experimental: Recombinant human proteins—Recombinant human selenoprotein GPX and TXNRD isoenzymes as well as recombinant human GR were cloned, expressed, and purified as described previously [[26], [27], [28]].
GR counter assay was run by incubating 198 μL of GR and BSA in TES buffer with 2 μL compound for 30 min before dispensing 50 μL GSSG and NADPH in TES for final concentrations of 100 nM GR, 1 mM GSSG, 0.4 mM NADPH, 0.01% BSA. Absorbance at 340 was measured as above.

A549 cells = experiment: Cytotoxicity assay, A549 cells; assay type: cell-based, human; conditions: for Cell viability compared to DMSO controls: 5 μM
Experimental: (§1) Cell culture—H1975 and A549 cells were cultured in RPMI-1640 medium (HyClone) with Earle's salts supplemented and penicillin/streptomycin (100 μg/ml), while HT1080 cells were cultured in MEM medium for Fig. 2 experiments. For all other cellular experiments, A549 cells were cultured in DMEM 4.5 g/L glucose medium (Gibco), and H1975 cells in RPMI-1640 ATCC Modification (Gibco). Cell cultures were maintained at 37 °C in 5% CO2 in a medium containing 10% fetal bovine serum (FBS) (GE Healthcare, A15-102 for Fig. 2 experiments and Sigma, F7524 for all others). Experiments were performed with or without supplementation with 100 nM sodium selenite as described.
(§2) Cytotoxicity assays— Cells were seeded in a 96-well plate at the density of 3 × 10^3 per well and allowed to adhere overnight. After which, cells were treated with various concentrations of compound for the indicated times, whereupon cell viability was determined using Cell Quanti-Blue™ Cell Viability Assay Kits (Nordic Diagnostica, CQBL-10K). Briefly, QUANTI-Blue Reagent (10 μL) was added to each well, incubated at 37 °C in 5% CO2 for 3 h, and then the plates were measured at 540nm/600 nm (Ex/Em) using the Tecan Microplate Reader (Morrisville NC, USA).

H1975 cells = experiment: Cytotoxicity assay, H1975 cells; assay type: cell-based, human
Experimental: as §1, §2

HT1080 cells = experiment: Cytotoxicity assay, HT1080 cells; assay type: cell-based; conditions: HT1080, 24 h
Experimental: as §1, §2

[2] = 24 h, media not supplemented with selenium
[3] = A549, 24 h, no selenium supplementation
[4] = A549 in absence of selenium supplementation, 24 h

## COC(=O)c1ccc([C@@H]2c3[nH]c4ccccc4c3C[C@@H](C(=O)OC)N2C(=O)CCl)cc1 [RSL3, (1S,3R)RSL3]
[1]
  Inhibition of GR: did not inhibit GPX1 or GR
A549 cells; [2]
  IC50: ~500 nM
A549 cells; [3]
  Suppression of cell death by MitoTEMPO: but not by the mitochondrial antioxidant MitoTEMPO
  Suppression of cell death by addition of ferrostatin-1: at least 20 fold
A549 cells; A549, non-selenium supplemented, 24 h
  Cell viability compared to DMSO controls: 10%
A549 cells; A549, supplemented with 100 nM sodium selenite, 24 h
  Cell viability compared to DMSO controls: approximately 78%
A549 cells; [4]
  Protection by caspase inhibitor z-VAD-fmk: did not protect these cells from RSL3
  Protection by necrostatin: partially protected by nectrostatin
A549 cells; A549 without selenium supplementation, 24 h
  Block of cell death by antioxidants and iron chelators: blocked by ferrostatin, NDGA (another strong antioxidant), or the iron chelators DFO and DPD50
H1975 cells; [2]
  IC50: 150 nM
H1975 cells; H1975, 24 h
  Rescue from cytotoxicity by selenium supplementation: partial rescue
HT1080 cells
  Rescue from cytotoxicity by selenium supplementation: no rescue
